Measurements taken from patent US4152436A, “Acylated pentadienone hydrazone, method for preparing the same, and use as fire ant control agents” (American Cyanamid Company, priority 1978, dated 1979).

How the values were obtained:
[1] = Solubility in soybean oil; type: physicochemical
From the text: Determination of the Solubility of the Compounds of the Invention in Soybean Oil
The sample of the compound is then reweighed, the difference between the initial and final weights corresponding to the weight of the compound in solution.

[2] = tested on: Cabbage Looper [Trichoplusia ni (Hubner)]; experiment: Insecticide test, cabbage looper 3rd instar; type: in vivo; details: 48 h, 2 days, 26.7° C., read-out: % kill, Cabbage Looper 3rd Instar
Description: Cabbage Looper [Trichoplusia ni (Hubner)]
A primary leaf of a cotton plant is dipped in the test solution and agitated for 3 seconds. It is then set in a hood to dry. Following this, the leaf is placed in a 10 cm petri dish containing a moist filter paper at the bottom and 10 third-instar loopers. The dish is covered and held at 26.7° C. After 2 days, mortality counts and estimates of feeding damage are recorded. Those materials showing partial kill and/or inhibition of feeding are held for another day for further observations.
(§1) Compounds rated active (8 or 9) are further tested at reduced concentrations in 50% acetone:50% water.

[3] = tested on: Tobacco Budworm [Heliothis virescens (Fabricius)]; experiment: whole plant or invertebrate; type: in vivo; details: 72 h, read-out: % kill, Tobacco Budworm 3rd Instar
Description: Third Instar Three cotton plants with just expanded cotyledons are dipped in a 1000 ppm solution, and placed in a hood to dry. When dry, each cotyledon is cut in half and each half is placed in one of ten 29.6 ml plastic medicine cups containing a 1.25 cm dental wick saturated with water, and one third instar budworm larva is added. The cup is capped and held for 3 days at 26.7° C., after which mortality counts are made. Compounds rated active (8 or 9) are further tested at reduced concentrations in 50% acetone:50% water.

[4] = tested on: Tobacco Budworm [Heliothis virescens (Fabricius)]; experiment: Insecticide test, tobacco budworm 1st instar (eggs / newly hatched larvae on dipped cotton leaf); type: in vivo; details: 72 h, read-out: % kill, Tobacco Budworm 1st Instar
Description: Tobacco Budworm [Heliothis virescens (Fabricius)]
A cotton plant with 2 true leaves expanded is dipped for 3 seconds with agitation in a 300 ppm solution. A 1.25 to 2 cm square of cheesecloth with about 50 to 100 budworm eggs 0-24 hours old is also dipped in the test solution and placed on one leaf to dry. The leaf with the treated budworm eggs is removed from the plant and placed in a 236.6 ml (8-oz) Dixie cup with a wet 5 cm piece of dental wick and covered with a lid. The other leaf is placed in a similar cup with a wick and a piece of cheesecloth infested with 50-100 newly hatched larvae is added before covering the cup with a lid. After 3 days at 26.7° C., observations of egg hatch are made as well as kill of newly hatched larvae, any inhibition of feeding, or interference of any sort with normal development.
as §1

[5] = tested on: Southern Armyworm [Spodoptera eridania (Cramer)]; experiment: whole plant or invertebrate; type: in vivo; details: for mortality at 100 ppm / mortality at 1000 ppm / mortality at 10 ppm: 48 h, read-out: % kill, Southern Armyworm 3rd Instar
Description: Southern Armyworm [Spodoptera eridania ([…] bean plant with just the primary leaves expanded to 7.6 to 10 cm is dipped for 3 seconds with agitation in a 1000 ppm solution and set in a hood to dry. […] The dish is covered and held at 26.7° C. After 2 days mortality counts and estimates of the amount of feeding are made. Compounds showing partial kill and/or inhibition of feeding are held for an extra day for further observations. All compounds showing activity as defined above are retested, using the second leaf on the bean plant, after an interval of 7 days from original treatment, as an assay of residual activity. Compounds rated active (8 or 9) are further tested at reduced concentrations in 50% acetone:50% water.

Row | Compound | Solubility in Soybean oil, In % of w/w [1] | Solubility in Soybean oil, In g/g of oil [1] | mortality at 10 ppm [2] [%] | mortality at 100 ppm [2] [%] | mortality at 1000 ppm [2] [%] | mortality at 10 ppm [3] [%] | mortality at 100 ppm [3] [%] | mortality at 1000 ppm [3] [%] | mortality at 10 ppm [4] [%] | mortality at 100 ppm [4] [%] | mortality at 100 ppm [5] [%] | mortality at 1000 ppm [5] [%] | mortality at 300 ppm [4] [%] | mortality at 10 ppm [5] [%] | pest or weed control at 1000 µg/mL ([5]; 168 h, second leaf, 7 days from original treatment, read-out: % kill, Southern Armyworm 3rd Instar, 7 days (residual activity)) [%]
1 | CC1(C)CN=C(NN=C(C=Cc2ccc(C(F)(F)F)cc2)C=Cc2ccc(C(F)(F)F)cc2)N(C(=O)c2ccccc2)C1 [drawing 32] | 0.4 % of w/w | 0.004 g/g of oil |  |  |  |  |  |  |  |  |  |  |  |  | 
2 | CC(=O)N1CC(C)(C)CN=C1NN=C(C=Cc1ccc(Cl)cc1)C=Cc1ccc(Cl)cc1 [R1=Cl, R3=CH3] |  |  | 0 | 100 | 100 | 0 | 100 | 100 | 0 to 40 | 100 | 100 | 100 |  |  | 
3 | CCCCC(CC)C(=O)N1CC(C)(C)CN=C1NN=C(C=Cc1ccc(C(F)(F)F)cc1)C=Cc1ccc(C(F)(F)F)cc1 (centres unmarked) |  |  | 80 | 90 | 100 |  | 40 | 100 |  |  | 100 | 100 | 0 | 0 | 
4 | CC1(C)CN=C(NN=C(C=Cc2ccc(C(F)(F)F)cc2)C=Cc2ccc(C(F)(F)F)cc2)N(C(=O)c2ccc(C(C)(C)C)cc2)C1 |  |  | 0 | 100 | 100 | 0 | 100 | 100 | 0 to 40 | 0 to 40 | 90 | 100 | 86 to 95 | 0 | 0
5 | CC1(C)CN=C(NN=C(C=Cc2ccc(C(F)(F)F)cc2)C=Cc2ccc(C(F)(F)F)cc2)NC1 | 0.1 % of w/w | 0.001 g/g of oil |  |  |  |  |  |  |  |  |  |  |  |  | 
6 | CC(=O)N1CC(C)(C)CN=C1NN=C(C=Cc1ccc(C(F)(F)F)cc1)C=Cc1ccc(C(F)(F)F)cc1 [drawing 31] | 0.3 % of w/w | 0.003 g/g of oil |  |  |  |  |  |  |  |  |  |  |  |  | 
7 | CCCCCCCCCCCCCCCC(=O)N1CC(C)(C)CN=C1NN=C(C=Cc1ccc(C(F)(F)F)cc1)C=Cc1ccc(C(F)(F)F)cc1 [drawing 33] | 2.0 % of w/w | 0.02 g/g of oil |  |  |  |  |  |  |  |  |  |  |  |  | 
8 | CC(C)C(=O)N1CC(C)(C)CN=C1NN=C(C=Cc1ccc(C(F)(F)F)cc1)C=Cc1ccc(C(F)(F)F)cc1 [R1=CF3, R3=(CH3)2 CH] |  |  | 0 | 100 | 100 | 0 | 50 | 100 |  |  | 100 | 100 | 86 to 95 | 0 | 
